Molecules are shown by their SMILES.

Sequence of hMCH-1R (Q99705 whole entry): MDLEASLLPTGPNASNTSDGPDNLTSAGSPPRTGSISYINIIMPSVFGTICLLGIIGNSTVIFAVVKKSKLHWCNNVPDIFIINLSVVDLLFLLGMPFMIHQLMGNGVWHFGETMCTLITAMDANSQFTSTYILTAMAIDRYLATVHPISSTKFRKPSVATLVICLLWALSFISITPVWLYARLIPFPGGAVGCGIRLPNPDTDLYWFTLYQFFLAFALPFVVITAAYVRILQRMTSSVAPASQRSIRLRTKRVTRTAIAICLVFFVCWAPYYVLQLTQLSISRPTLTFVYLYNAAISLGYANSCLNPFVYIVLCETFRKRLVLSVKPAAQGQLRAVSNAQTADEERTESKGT

The first assay has as its target hMCH-1R (Homo sapiens (Human), UniProt Q99705). The experiment in a line: MCH-1 receptor binding test (125I-MCH binding to hMCH-1R transfected cell membranes). Conditions: 125I-MCH on hMCH-1R membranes; read-out: KD value of the radioligand. As to the method: Res Commun. […] After the incubation the reaction is filtered using a cell harvester through 0.5% PEI treated fibreglass filters (GF/B, Unifilter Packard). The membrane-bound radioactivity retained on the filter is then determined after the addition of scintillator substance (Packard Microscint 20) in a measuring device (TopCount of Packard). […] The analysis of the concentration binding curve is carried out on the assumption of one receptor binding site.
What is called Kd is the free concentration of one partner at which half of the binding sites on the other are occupied at equilibrium, for simple one-to-one binding. For the molecule `CSCC[C@@H]1NC(=O)[C@@H](NC(=O)[C@H](CCCNC(=N)N)NC(=O)[C@H](CC(C)C)NC(=O)[C@H](CCSC)NC(=O)[C@H](CC(=O)O)NC(=O)[C@H](Cc2ccccc2)NC(=O)[C@@H](N)CC(=O)O)CSSC[C@@H](C(=O)N[C@@H](Cc2c[nH]c3ccccc23)C(=O)N[C@@H](CCC(N)=O)C(=O)N[C@H](C(=O)O)C(C)C)NC(=O)[C@@H]2CCCN2C(=O)[C@H](CCCNC(=N)N)NC(=O)[C@H](Cc2ccc(O)c(I)c2)NC(=O)[C@H](C(C)C)NC(=O)[C@H](CCCNC(=N)N)NC(=O)CNC(=O)[C@H](CC(C)C)NC1=O` [^125I-MCH, reference compound], the dissociation constant Kd stood at 0.156 nM.

Still in this assay, the particulars now being: competition with 100 pM 125I-MCH, membranes of CHO/Galpha16 cells stably transfected with hMCH-1R.
The term IC50 denotes the concentration that inhibits the measured activity by half. A lower IC50 goes with greater potency. Molecule `Cc1cc(CN2CCC(O)CC2)ccc1C(=O)Cn1ccc(OCc2ccc(F)cn2)cc1=O` [Example 2.3] gave an IC50 of 93 nM. That is a double-digit nanomolar value.

Take `Cc1cc(CN2CCC[C@@H](O)C2)ccc1C(=O)Cn1ncc(OCc2ccc(Cl)cn2)cc1=O` [Example 7.11]: the 50% inhibitory concentration (IC50) was determined as 31 nM.

`Cc1cc(CN2CC[C@H](O)C2)ccc1C(=O)Cn1ccc(OCc2ccc(Cl)cn2)cc1=O` [Example 3.3]: the IC50 was 39 nM.

`Cc1cc(CN2CCC2)ccc1C(=O)Cn1ccc(OCc2ccc(Br)cn2)cc1=O` [Example 4.21, 1-[2-(4-Azetidin-1-ylmethyl-2-methyl-phenyl)-2-oxo-ethyl]-4-(5-bromo-pyridin-2-ylmethoxy)-1H-pyridin-2-one] gave an IC50 of 18 nM.

Consider `CNC(C)c1ccc(C(=O)Cn2ncc(OCc3ccc(OC)cn3)cc2=O)c(C)c1` (centres unmarked) [Example 10.2, 5-(5-Methoxy-pyridin-2-ylmethoxy)-2-{2-[2-methyl-4-(1-methylamino-ethyl)-phenyl]-2-oxo-ethyl}-2H-pyridazin-3-one], for which the IC50 is 22 nM.

With `Cc1cc(CN2CCC(CO)CC2)ccc1C(=O)Cn1ccc(OCc2ccc(Br)cn2)cc1=O` [Example 4.3, 4-(5-Bromo-pyridin-2-ylmethoxy)-1-{2-[4-(4-hydroxymethyl-piperidin-1-ylmethyl)-2-methyl-phenyl]-2-oxo-ethyl}-1H-pyridin-2-one], the IC50 was found to be 13 nM.

For the molecule `Cc1cc(CN2CCC[C@H]2CO)ccc1C(=O)Cn1ncc(OCc2ccccc2)cc1=O` [Example 5.3, (S)-5-Benzyloxy-2-{2-[4-(2-hydroxymethyl-pyrrolidin-1-ylmethyl)-2-methyl-phenyl]-2-oxo-ethyl}-2H-pyridazin-3-one], the IC50 came to 11 nM.

`Cc1cc(CN2CCOC(C)C2)ccc1C(=O)Cn1ncc(OCc2ccccc2)cc1=O` (centres unmarked) [Example 5.9, 5-Benzyloxy-2-{2-[2-methyl-4-(2-methyl-morpholin-4-ylmethyl)-phenyl]-2-oxo-ethyl}-2H-pyridazin-3-one] showed an IC50 of 30 nM.

The molecule `Cc1cc(CN2CC[C@H](O)C2)ccc1C(=O)Cn1ncc(OCc2ccc(Cl)cn2)cc1=O` [Example 7.12] yielded an IC50 of 30 nM.

The molecule `CNCc1ccc(C(=O)Cn2ncc(OCc3ccc(OC)cn3)cc2=O)c(C)c1` [Example 9.4, 5-(5-Methoxy-pyridin-2-ylmethoxy)-2-[2-(2-methyl-4-methylaminomethyl-phenyl)-2-oxo-ethyl]-2H-pyridazin-3-one] showed an IC50 of 20 nM. Compared with the last molecule, the IC50 is about 1.5-fold lower.

With `Cc1cc(CN2CCC[C@H](O)C2)ccc1C(=O)Cn1ccc(OCc2ccccc2)cc1=O` [Example 1.13, (S)-4-Benzyloxy-1-{2-[4-(3-hydroxy-piperidin-1-ylmethyl)-2-methyl-phenyl]-2-oxo-ethyl}-1H-pyridin-2-one], the IC50 amounted to 29 nM.

`CCNCc1ccc(C(=O)Cn2ccc(OCc3ccccc3)cc2=O)c(C)c1` [Example 1.12, 4-Benzyloxy-1-[2-(4-ethylaminomethyl-2-methyl-phenyl)-2-oxo-ethyl]-1H-pyridin-2-one] registered an IC50 of 21 nM.

The molecule `Cc1cc(CN2CCCC[C@@H]2CO)ccc1C(=O)Cn1ccc(OCc2ccc(Br)cn2)cc1=O` [Example 4.7, (R)-4-(5-Bromo-pyridin-2-ylmethoxy)-1-{2-[4-(2-hydroxymethyl-piperidin-1-ylmethyl)-2-methyl-phenyl]-2-oxo-ethyl}-1H-pyridin-2-one] gave an IC50 of 14 nM.

For `CCNCc1ccc(C(=O)Cn2ncc(OCc3ccc(Cl)cn3)cc2=O)c(C)c1` [Example 7.7, 5-(5-Chloro-pyridin-2-ylmethoxy)-2-[2-(4-ethylaminomethyl-2-methyl-phenyl)-2-oxo-ethyl]-2H-pyridazin-3-one], the IC50 worked out at 18 nM. This IC50 and that of the molecule before are within 1.5-fold of each other.

`Cc1cc(CN2CC[C@@H](O)C2)ccc1C(=O)Cn1ncc(OCc2ccc(Cl)cn2)cc1=O` [Example 7.9]: the IC50 amounted to 32 nM. Compared with the last molecule, the IC50 is about 1.8-fold higher.

In turn, `Cc1cc(CN2CCC[C@@H](O)C2)ccc1C(=O)Cn1ccc(OCc2ccccc2)cc1=O` [Example 1.15, (R)-4-Benzyloxy-1-{2-[4-(3-hydroxy-piperidin-1-ylmethyl)-2-methyl-phenyl]-2-oxo-ethyl}-1H-pyridin-2-one] showed an IC50 of 31 nM.

Regarding `Cc1cc(CN2CCOCC2)ccc1C(=O)Cn1ccc(OCc2ccc(Br)cn2)cc1=O` [Example 4.11], the IC50 was determined as 59 nM.

In turn, `CCNCc1ccc(C(=O)Cn2ccc(OCc3ccc(Cl)cn3)cc2=O)c(C)c1` [Example 3.11, 4-(5-Chloro-pyridin-2-ylmethoxy)-1-[2-(4-ethylaminomethyl-2-methyl-phenyl)-2-oxo-ethyl]-1H-pyridin-2-one] returned an IC50 of 26 nM. Compared with the last molecule, the IC50 is about 2.3-fold lower.

Consider `Cc1cc(CN2CCC(CO)CC2)ccc1C(=O)Cn1ccc(OCc2ccccc2)cc1=O` [Example 1.6, 4-Benzyloxy-1-{2-[4-(4-hydroxymethyl-piperidin-1-ylmethyl)-2-methyl-phenyl]-2-oxo-ethyl}-1H-pyridin-2-one], for which the IC50 came out at 24 nM.

Consider `Cc1cc(CN2CC(O)C2)ccc1C(=O)Cn1ncc(OCc2ccccc2)cc1=O` [Example 5.7, 5-Benzyloxy-2-{2-[4-(3-hydroxy-azetidin-1-ylmethyl)-2-methyl-phenyl]-2-oxo-ethyl}-2H-pyridazin-3-one], for which the IC50 worked out at 10 nM.

In the case of `CCNCc1ccc(C(=O)Cn2ncc(OCc3ccc(F)cn3)cc2=O)c(C)c1` [Example 6.3], the IC50 is 59 nM.

Molecule `Cc1cc(CN2CCC[C@H](O)C2)ccc1C(=O)Cn1ncc(OCc2ccccc2)cc1=O` [Example 5.13, (S)-5-Benzyloxy-2-{2-[4-(3-hydroxy-piperidin-1-ylmethyl)-2-methyl-phenyl]-2-oxo-ethyl}-2H-pyridazin-3-one] gave an IC50 of 13 nM.

In turn, `Cc1cc(CN2CCC[C@H]2CO)ccc1C(=O)Cn1ccc(OCc2ccc(Cl)cn2)cc1=O` [Example 3.2, 4-(5-Chloro-pyridin-2-ylmethoxy)-1-{2-[4-((S)-2-hydroxymethyl-pyrrolidin-1-ylmethyl)-2-methyl-phenyl]-2-oxo-ethyl}-1H-pyridin-2-one] displayed an IC50 of 36 nM. This IC50 lies about 2.8-fold higher than the previous one.

In the case of `Cc1cc(CN(C)C)ccc1C(=O)Cn1ncc(OCc2ccc(Cl)cn2)cc1=O` [Example 7.16, 5-(5-Chloro-pyridin-2-ylmethoxy)-2-[2-(4-dimethylaminomethyl-2-methyl-phenyl)-2-oxo-ethyl]-2H-pyridazin-3-one], the IC50 was found to be 24 nM.

For the molecule `CNCc1ccc(C(=O)Cn2ccc(OCc3ccc(Br)cn3)cc2=O)c(C)c1` [Example 4.13, 4-(5-Bromo-pyridin-2-ylmethoxy)-1-[2-(2-methyl-4-methylaminomethyl-phenyl)-2-oxo-ethyl]-1H-pyridin-2-one], the IC50 is 26 nM.

Take `Cc1cc(CN2CCC[C@H]2CO)ccc1C(=O)Cn1ncc(OCc2ccc(Cl)cn2)cc1=O` [Example 7.1, (S)-5-(5-Chloro-pyridin-2-ylmethoxy)-2-{2-[4-(2-hydroxymethyl-pyrrolidin-1-ylmethyl)-2-methyl-phenyl]-2-oxo-ethyl}-2H-pyridazin-3-one]: the IC50 is 26 nM. That is a double-digit nanomolar value.

`CCN1CCN(Cc2ccc(C(=O)Cn3ncc(OCc4ccc(Cl)cn4)cc3=O)c(C)c2)CC1` [Example 7.2] came in with an IC50 of 71 nM. Against the preceding molecule, the IC50 is about 2.7-fold higher.

`Cc1cc(CN2CC[C@H](O)C2)ccc1C(=O)Cn1ncc(OCc2ccccc2)cc1=O` [Example 5.5]: the IC50 was 11 nM.

As for `Cc1cc(CN2CC[C@@H](O)C2)ccc1C(=O)Cn1ncc(OCc2ccc(Br)cn2)cc1=O` [Example 8.1, (R)-5-(5-Bromo-pyridin-2-ylmethoxy)-2-{2-[4-(3-hydroxy-pyrrolidin-1-ylmethyl)-2-methyl-phenyl]-2-oxo-ethyl}-2H-pyridazin-3-one], the IC50 is 22 nM.

`Cc1cc(CN2CCN(C)CC2)ccc1C(=O)Cn1ccc(OCc2ccc(Br)cn2)cc1=O` [Example 4.14] registered an IC50 of 72 nM. Compared with the last molecule, the IC50 is about 3.3-fold higher.

For `Cc1cc(CN2CCC(C)(O)C2)ccc1C(=O)Cn1ncc(OCc2ccc(Br)cn2)cc1=O` (centres unmarked) [Example 8.5], the IC50 worked out at 18 nM.

Take `Cc1cc(CN2CCC[C@H](O)C2)ccc1C(=O)Cn1ncc(OCc2ccc(Cl)cn2)cc1=O` [Example 7.10]: the IC50 is 25 nM.

`Cc1cc(CN2CCC[C@@H](O)C2)ccc1C(=O)Cn1ccc(OCc2ccc(Br)cn2)cc1=O` [Example 4.12, (R)-4-(5-Bromo-pyridin-2-ylmethoxy)-1-{2-[4-(3-hydroxy-piperidin-1-ylmethyl)-2-methyl-phenyl]-2-oxo-ethyl}-1H-pyridin-2-one] displayed an IC50 of 23 nM.

Regarding `Cc1cc(CN2CCCC2)ccc1C(=O)Cn1ccc(OCc2ccccc2)cc1=O` [Example 1.7, 4-Benzyloxy-1-[2-(2-methyl-4-pyrrolidin-1-ylmethyl-phenyl)-2-oxo-ethyl]-1H-pyridin-2-one], the IC50 worked out at 11 nM.

Consider `CCNCc1ccc(C(=O)Cn2ccc(OCc3ccc(Br)cn3)cc2=O)c(C)c1` [Example 4.6, 4-(5-Bromo-pyridin-2-ylmethoxy)-1-[2-(4-ethylaminomethyl-2-methyl-phenyl)-2-oxo-ethyl]-1H-pyridin-2-one], for which the IC50 was 50 nM.

As to `Cc1cc(CN2CCC(O)CC2)ccc1C(=O)Cn1ccc(OCc2ccc(Cl)cn2)cc1=O` [Example 3.7], the IC50 was found to be 36 nM.

`CNCc1ccc(C(=O)Cn2ccc(OCc3ccccc3)cc2=O)c(C)c1` [Example 1.2, 4-Benzyloxy-1-[2-(2-methyl-4-methylaminomethyl-phenyl)-2-oxo-ethyl]-1H-pyridin-2-one]: the IC50 was 19 nM.

The values are drawn from patent publication US8933079B2, “Pyridone and pyridazinone derivatives as anti-obesity agents” (Boehringer Ingelheim International GmbH, priority 2012, dated 2015).
